Results reported in article PMC3200115, “Peptide Inhibition of Topoisomerase IB from Plasmodium falciparum” (Molecular Biology International, 2011).
Bridges are numbered along the chain shown (N, C = ends). Where no end group is shown, it is not given here.

Columns and labels:
bacteriophage λ-Int = settings: ref [39], [40]; cited from earlier work
DNA = assay: Unspecific DNA binding; settings: confirmed in the present study, data not shown
[1] = system: P. falciparum topoisomerase I (pfTopoI); assay: Plasmid (pBR322) DNA relaxation by pfTopoI; type: biochemical, Plasmodium falciparum; settings: peptide 1.3 to 50 μM; even at concentrations up to 50 μM; 30 min, 37°C
[2] = system: type IB Topo of Vaccinia virus (vvTopoI); settings: cited from earlier work; for step of catalysis inhibited (vvTopoI): DNA relaxation by vvTopoI; for step of catalysis inhibited (vvTopoI) / inhibition of vvTopoI relaxation activity: ref [39], [40]; for activity against vvTopoI: from rescreening of peptide combinatorial library against vvTopoI, ref [40]

Substance	step of catalysis inhibited (λ-Int) (bacteriophage λ-Int)	DNA binding capacity (DNA)	effect on relaxation activity of pfTopoI [1]	step of catalysis inhibited (vvTopoI) [2]	activity against vvTopoI [2]	inhibition of vvTopoI relaxation activity [2]
WYCRCK (disulfide 3-5 (inferred)) [synthetic hexapeptide purchased from GenScript]	specific inhibition of the cleavage and not the ligation step of catalysis	unspecific DNA binding capacity	no effect	specific inhibition of the cleavage and not the ligation step of catalysis	high activity	inhibited the relaxation activity of vvTopoI
KCCRCK (disulfide (positions not given here)) [synthetic hexapeptide purchased from GenScript]	specific inhibition of the cleavage and not the ligation step of catalysis	unspecific DNA binding capacity	no effect	specific inhibition of the cleavage and not the ligation step of catalysis	high activity	inhibited the relaxation activity of vvTopoI
